Test results reported in ChEMBL document CHEMBL2169851, “Imidazopyridazinones as novel PDE7 inhibitors: SAR and in vivo studies in Parkinson's disease model” (Bioorg Med Chem Lett, 2012).
Activity calls are given as the source filed them. No cut-off for these calls is given here.

Key:
[1] = biological target: T1, High affinity 3',5'-cyclic-AMP phosphodiesterase 7A (Homo sapiens, UniProt Q13946); assay: Inhibition of cloned human recombinant PDE7A assessed as [3H]cAMP hydrolysis by radiometric assay
[2] = biological target: T1, High affinity 3',5'-cyclic-AMP phosphodiesterase 7A; assay: Inhibition of cloned human recombinant PDE7A assessed as [3H]cAMP hydrolysis at 1 uM by radiometric assay
[3] = Tmax in C57 mouse at 10 mg/kg, ip; type: ADME, organism-based; design: dose 10 mg/kg, route intraperitoneal; settings: in vivo
[4] = AUC in C57 mouse at 10 mg/kg, ip; type: ADME, organism-based; design: dose 10 mg/kg, route intraperitoneal; settings: plasma
[5] = Ratio of drug level in brain to plasma in C57 mouse at 10 mg/kg, ip after 30 mins; type: ADME, organism-based; design: dose 10 mg/kg, route intraperitoneal; settings: read-out: BPR
[6] = Cmax in C57 mouse at 10 mg/kg, ip; type: ADME, organism-based; design: dose 10 mg/kg, route intraperitoneal; settings: in vivo
[7] = Plasma concentration in C57 mouse at 10 mg/kg, ip after 30 mins; type: ADME, organism-based; design: dose 10 mg/kg, route intraperitoneal
[8] = Drug uptake in C57 mouse brain at 10 mg/kg, ip after 30 mins; type: ADME, organism-based; design: dose 10 mg/kg, route intraperitoneal; settings: read-out: Drug uptake
[9] = Metabolic stability in mouse liver microsomes assessed as compound remaining after 60 mins; type: ADME, Microsome; settings: read-out: Stability
[10] = Metabolic stability in rat liver microsomes assessed as compound remaining after 60 mins; type: ADME, Microsome; settings: read-out: Stability
[11] = Metabolic stability in human liver microsomes assessed as compound remaining after 60 mins; type: ADME, Microsome; settings: read-out: Stability
[12] = biological target: Dual 3',5'-cyclic-AMP and -GMP phosphodiesterase 11A (Homo sapiens) (UniProt Q9HCR9); assay: Inhibition of cloned human recombinant PDE11A assessed as [3H]cAMP hydrolysis at 10 uM by radiometric assay
[13] = biological target: cAMP and cAMP-inhibited cGMP 3',5'-cyclic phosphodiesterase 10A (Homo sapiens) (UniProt Q9Y233); assay: Inhibition of cloned human recombinant PDE10A assessed as [3H]cAMP hydrolysis at 10 uM by radiometric assay
[14] = biological target: High affinity cGMP-specific 3',5'-cyclic phosphodiesterase 9A (Homo sapiens) (UniProt O76083); assay: Inhibition of cloned human recombinant PDE9A2 assessed as [3H]cAMP hydrolysis at 10 uM by radiometric assay
[15] = biological target: High affinity cAMP-specific and IBMX-insensitive 3',5'-cyclic phosphodiesterase 8A (Homo sapiens) (UniProt O60658); assay: Inhibition of cloned human recombinant PDE8A1 assessed as [3H]cAMP hydrolysis at 10 uM by radiometric assay
[16] = biological target: cGMP-specific 3',5'-cyclic phosphodiesterase (Homo sapiens) (UniProt O76074); assay: Inhibition of cloned human recombinant PDE5A assessed as [3H]cAMP hydrolysis at 10 uM by radiometric assay
[17] = biological target: T2, 3',5'-cyclic-AMP phosphodiesterase 4D (Homo sapiens, UniProt Q08499); assay: Inhibition of cloned human recombinant PDE4D assessed as [3H]cAMP hydrolysis at 10 uM by radiometric assay
[18] = biological target: cGMP-inhibited 3',5'-cyclic phosphodiesterase 3A (Homo sapiens) (UniProt Q14432); assay: Inhibition of cloned human recombinant PDE3A assessed as [3H]cAMP hydrolysis at 10 uM by radiometric assay
[19] = biological target: cGMP-dependent 3',5'-cyclic phosphodiesterase (Homo sapiens) (UniProt O00408); assay: Inhibition of cloned human recombinant PDE2A assessed as [3H]cAMP hydrolysis at 10 uM by radiometric assay
[20] = biological target: Dual specificity calcium/calmodulin-dependent 3',5'-cyclic nucleotide phosphodiesterase 1A (Homo sapiens) (UniProt P54750); assay: Inhibition of cloned human recombinant PDE1A assessed as [3H]cAMP hydrolysis at 10 uM by radiometric assay
[21] = biological target: 3',5'-cyclic-AMP phosphodiesterase 7B (Homo sapiens, UniProt Q9NP56); assay: Inhibition of cloned human recombinant PDE7B assessed as [3H]cAMP hydrolysis by radiometric assay
[22] = species: Homo sapiens; assay: Selectivity ratio of IC50 for cloned human recombinant PDE4D to IC50 for cloned human recombinant PDE7B
[23] = species: Homo sapiens; assay: Selectivity ratio of IC50 for cloned human recombinant PDE4D to IC50 for cloned human recombinant PDE7A
[24] = biological target: T2, 3',5'-cyclic-AMP phosphodiesterase 4D; assay: Inhibition of cloned human recombinant PDE4D assessed as [3H]cAMP hydrolysis by radiometric assay
[25] = test system: Mus musculus; assay: Antiparkinsonian activity in C57BL/6 mouse assessed as decrease in MPTP-induced vertical rearing behavior impairment at 12.5 mg/kg, ip administered 30 mins on day 7 post MPTP challenge; type: functional, organism-based; design: dose 12.5 mg/kg
[26] = test system: Mus musculus; assay: Neurotoxicity in sc dosed C57BL/6 mouse assessed as induction of catalepsy measured at 0.5 to 1 hr; type: toxicity, organism-based; settings: in vivo

T2 sequence (Q08499 whole entry): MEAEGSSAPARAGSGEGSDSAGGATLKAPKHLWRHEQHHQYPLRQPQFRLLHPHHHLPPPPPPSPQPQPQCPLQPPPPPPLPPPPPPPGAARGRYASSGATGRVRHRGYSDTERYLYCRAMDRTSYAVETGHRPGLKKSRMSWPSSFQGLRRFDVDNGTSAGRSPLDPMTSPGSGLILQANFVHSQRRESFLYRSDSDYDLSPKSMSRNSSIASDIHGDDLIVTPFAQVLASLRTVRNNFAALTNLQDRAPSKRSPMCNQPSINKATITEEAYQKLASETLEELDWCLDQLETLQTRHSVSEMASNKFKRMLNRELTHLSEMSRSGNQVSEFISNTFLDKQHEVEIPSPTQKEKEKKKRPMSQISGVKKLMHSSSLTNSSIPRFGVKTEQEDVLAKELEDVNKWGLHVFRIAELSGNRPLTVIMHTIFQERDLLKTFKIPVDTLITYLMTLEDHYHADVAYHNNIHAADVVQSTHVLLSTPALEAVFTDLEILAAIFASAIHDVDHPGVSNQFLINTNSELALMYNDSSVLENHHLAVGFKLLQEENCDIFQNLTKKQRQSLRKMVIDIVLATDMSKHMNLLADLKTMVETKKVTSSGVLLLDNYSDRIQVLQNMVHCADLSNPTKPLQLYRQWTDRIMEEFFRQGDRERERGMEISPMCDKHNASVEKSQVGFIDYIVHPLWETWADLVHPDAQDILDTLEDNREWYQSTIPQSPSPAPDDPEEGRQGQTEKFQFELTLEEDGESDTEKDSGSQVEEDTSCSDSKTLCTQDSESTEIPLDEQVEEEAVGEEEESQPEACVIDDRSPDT
T1 sequence (Q13946 whole entry): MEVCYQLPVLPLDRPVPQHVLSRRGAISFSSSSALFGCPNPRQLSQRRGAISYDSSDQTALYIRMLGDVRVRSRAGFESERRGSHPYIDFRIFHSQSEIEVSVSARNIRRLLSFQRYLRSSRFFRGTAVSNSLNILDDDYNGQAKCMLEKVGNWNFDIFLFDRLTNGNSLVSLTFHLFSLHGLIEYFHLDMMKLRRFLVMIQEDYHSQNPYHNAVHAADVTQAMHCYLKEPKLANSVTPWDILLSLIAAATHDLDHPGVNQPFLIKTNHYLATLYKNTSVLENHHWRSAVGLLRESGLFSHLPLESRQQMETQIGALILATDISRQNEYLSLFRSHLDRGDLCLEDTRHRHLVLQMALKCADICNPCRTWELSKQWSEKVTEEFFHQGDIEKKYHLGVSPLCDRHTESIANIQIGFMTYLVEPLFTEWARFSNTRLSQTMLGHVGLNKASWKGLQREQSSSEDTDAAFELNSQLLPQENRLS
Chain of Dual specificity calcium/calmodulin-dependent 3',5'-cyclic nucleotide phosphodiesterase 1A (Homo sapiens) (P54750 whole entry): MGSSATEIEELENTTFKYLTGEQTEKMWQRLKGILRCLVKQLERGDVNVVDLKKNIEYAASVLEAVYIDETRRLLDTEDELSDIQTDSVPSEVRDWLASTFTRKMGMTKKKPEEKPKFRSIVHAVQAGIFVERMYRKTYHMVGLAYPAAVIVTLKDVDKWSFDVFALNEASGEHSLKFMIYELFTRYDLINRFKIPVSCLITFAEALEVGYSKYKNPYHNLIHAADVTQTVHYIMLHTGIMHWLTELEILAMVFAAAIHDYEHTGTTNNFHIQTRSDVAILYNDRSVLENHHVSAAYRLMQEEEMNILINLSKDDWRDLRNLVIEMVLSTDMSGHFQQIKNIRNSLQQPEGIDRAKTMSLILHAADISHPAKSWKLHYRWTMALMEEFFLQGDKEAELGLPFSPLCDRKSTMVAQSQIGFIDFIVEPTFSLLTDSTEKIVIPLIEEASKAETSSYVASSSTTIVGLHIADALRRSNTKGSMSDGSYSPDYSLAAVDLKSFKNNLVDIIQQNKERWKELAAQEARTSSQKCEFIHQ
Chain of High affinity cAMP-specific and IBMX-insensitive 3',5'-cyclic phosphodiesterase 8A (Homo sapiens) (O60658 whole entry): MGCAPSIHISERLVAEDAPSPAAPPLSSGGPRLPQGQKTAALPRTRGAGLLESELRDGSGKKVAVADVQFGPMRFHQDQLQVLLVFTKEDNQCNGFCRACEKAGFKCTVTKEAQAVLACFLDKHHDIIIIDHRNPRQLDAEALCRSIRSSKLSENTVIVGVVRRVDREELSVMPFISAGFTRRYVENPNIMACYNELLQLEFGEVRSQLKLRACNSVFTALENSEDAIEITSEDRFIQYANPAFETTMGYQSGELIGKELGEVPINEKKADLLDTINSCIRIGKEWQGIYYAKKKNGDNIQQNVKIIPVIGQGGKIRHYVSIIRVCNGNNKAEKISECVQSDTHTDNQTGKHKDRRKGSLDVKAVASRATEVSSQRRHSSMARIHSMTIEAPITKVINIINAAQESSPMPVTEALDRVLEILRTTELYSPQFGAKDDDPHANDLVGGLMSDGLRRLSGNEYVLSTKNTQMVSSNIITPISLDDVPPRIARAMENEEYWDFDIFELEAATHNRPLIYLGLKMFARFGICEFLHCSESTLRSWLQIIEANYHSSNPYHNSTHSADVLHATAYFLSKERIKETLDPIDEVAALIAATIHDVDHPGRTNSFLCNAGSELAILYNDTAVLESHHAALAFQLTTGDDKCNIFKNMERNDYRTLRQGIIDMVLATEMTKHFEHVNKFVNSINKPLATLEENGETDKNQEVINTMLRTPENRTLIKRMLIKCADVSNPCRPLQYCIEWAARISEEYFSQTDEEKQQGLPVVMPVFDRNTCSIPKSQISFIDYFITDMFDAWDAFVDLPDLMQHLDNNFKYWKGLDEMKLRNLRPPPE
Chain of Dual 3',5'-cyclic-AMP and -GMP phosphodiesterase 11A (Homo sapiens) (Q9HCR9 whole entry, looked up): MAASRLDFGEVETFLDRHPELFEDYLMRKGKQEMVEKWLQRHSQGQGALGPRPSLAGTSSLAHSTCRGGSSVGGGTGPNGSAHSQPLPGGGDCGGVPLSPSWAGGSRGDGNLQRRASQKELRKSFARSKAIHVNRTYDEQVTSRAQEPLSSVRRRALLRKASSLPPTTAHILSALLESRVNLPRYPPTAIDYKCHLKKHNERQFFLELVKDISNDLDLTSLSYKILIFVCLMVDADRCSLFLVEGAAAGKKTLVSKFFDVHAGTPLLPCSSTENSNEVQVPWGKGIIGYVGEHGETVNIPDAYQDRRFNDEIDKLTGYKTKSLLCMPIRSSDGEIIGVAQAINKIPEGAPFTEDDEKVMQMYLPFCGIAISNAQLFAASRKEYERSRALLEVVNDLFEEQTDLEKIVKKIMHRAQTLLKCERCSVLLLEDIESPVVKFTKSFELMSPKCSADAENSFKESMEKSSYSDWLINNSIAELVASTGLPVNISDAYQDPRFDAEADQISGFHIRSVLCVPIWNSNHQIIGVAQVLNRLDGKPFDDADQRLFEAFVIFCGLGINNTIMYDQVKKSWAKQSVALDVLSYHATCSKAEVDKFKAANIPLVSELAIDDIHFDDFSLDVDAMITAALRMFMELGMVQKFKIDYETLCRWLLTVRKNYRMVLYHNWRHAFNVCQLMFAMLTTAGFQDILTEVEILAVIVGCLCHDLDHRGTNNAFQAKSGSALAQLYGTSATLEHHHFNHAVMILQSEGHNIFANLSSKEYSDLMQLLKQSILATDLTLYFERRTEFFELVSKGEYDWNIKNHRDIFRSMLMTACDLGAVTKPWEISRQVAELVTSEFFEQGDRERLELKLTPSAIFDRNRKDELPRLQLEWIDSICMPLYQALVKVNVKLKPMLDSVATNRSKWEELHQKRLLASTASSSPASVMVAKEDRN
Chain of High affinity cGMP-specific 3',5'-cyclic phosphodiesterase 9A (Homo sapiens) (O76083 whole entry): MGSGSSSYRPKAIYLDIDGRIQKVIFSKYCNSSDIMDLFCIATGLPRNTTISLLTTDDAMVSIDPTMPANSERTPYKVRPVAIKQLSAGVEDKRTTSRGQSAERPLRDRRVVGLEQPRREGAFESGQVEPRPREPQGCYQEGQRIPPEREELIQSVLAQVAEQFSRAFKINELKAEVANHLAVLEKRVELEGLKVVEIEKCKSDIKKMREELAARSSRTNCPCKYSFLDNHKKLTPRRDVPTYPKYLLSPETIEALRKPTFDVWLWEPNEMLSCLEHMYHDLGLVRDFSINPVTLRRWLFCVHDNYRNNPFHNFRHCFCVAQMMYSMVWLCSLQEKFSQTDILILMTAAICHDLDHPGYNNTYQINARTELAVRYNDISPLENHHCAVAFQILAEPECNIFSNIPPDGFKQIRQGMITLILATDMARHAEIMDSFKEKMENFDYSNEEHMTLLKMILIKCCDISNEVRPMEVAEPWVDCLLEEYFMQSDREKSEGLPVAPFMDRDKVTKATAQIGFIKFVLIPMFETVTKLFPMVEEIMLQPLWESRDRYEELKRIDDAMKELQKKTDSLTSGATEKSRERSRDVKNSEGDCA
Chain of 3',5'-cyclic-AMP phosphodiesterase 7B (Q9NP56 whole entry): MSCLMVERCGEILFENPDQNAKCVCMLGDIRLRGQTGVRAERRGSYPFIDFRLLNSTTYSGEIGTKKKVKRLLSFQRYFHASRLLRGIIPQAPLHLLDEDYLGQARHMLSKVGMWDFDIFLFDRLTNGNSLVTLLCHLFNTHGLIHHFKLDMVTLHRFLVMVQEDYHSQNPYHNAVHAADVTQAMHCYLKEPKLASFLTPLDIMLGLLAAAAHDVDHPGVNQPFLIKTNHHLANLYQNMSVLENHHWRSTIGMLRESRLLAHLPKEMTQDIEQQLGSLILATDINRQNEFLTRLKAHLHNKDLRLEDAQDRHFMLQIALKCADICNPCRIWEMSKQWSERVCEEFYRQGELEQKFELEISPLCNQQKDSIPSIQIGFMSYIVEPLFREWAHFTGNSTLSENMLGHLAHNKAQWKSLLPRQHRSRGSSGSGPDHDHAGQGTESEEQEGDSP

## COc1cc(N2CCCN(C(C)=O)CC2)ccc1-c1nc2c(C)nn(C3CCCCC3)c(=O)c2[nH]1
[1]
  IC50: 0.032 µM

## COc1cc(N2CCC(N)CC2)ccc1-c1nc2c(C)nn(C3CCN(C)CC3)c(=O)c2[nH]1
[2]
  inhibition: 7%

## COc1cc(N2CCC(N)CC2)ccc1-c1nc2c(C)nn(C3CCCCC3)c(=O)c2[nH]1
[3]
  Tmax: 4 h
[4]
  AUC: 2.3 µg·h/mL
[5]
  Kp at 0.5 h: 0.1
[6]
  Cmax: 0.902 µg/mL
[7]
  concentration at 0.5 h: 0.451 µg/mL
[8]
  concentration at 0.5 h: 46 ng/g
[9]
  remaining at 1 h: 44%
[10]
  remaining at 1 h: 100%
[11]
  remaining at 1 h: 100%
[12]
  inhibition: 44%
[13]
  inhibition: 40%
[14]
  inhibition: 9%
[15]
  inhibition: 6%
[16]
  inhibition: 32%
[17]
  inhibition: 81%
[18]
  inhibition: 2%
[19]
  inhibition: 40%
[20]
  inhibition: 16%
[21]
  IC50: 0.011 µM
[2]
  inhibition: 96%
[1]
  IC50: 0.027 µM

## COc1cc(N2CCC(N)CC2)ccc1-c1nc2c(C)nn(Cc3ccccc3)c(=O)c2[nH]1
[2]
  inhibition: 13%

## COc1cc(N2CC[C@@H](N)C2)ccc1-c1nc2c(C)nn(C3CCCCC3)c(=O)c2[nH]1
[1]
  IC50: 0.077 µM

## COc1cc(-c2n[nH]c(=O)o2)ccc1-c1nc2c(C)nn(C3CCCCC3)c(=O)c2[nH]1
[1]
  IC50: 0.068 µM

## COc1cc(N2CCC(O)C2)ccc1-c1nc2c(C)nn(C3CCCCC3)c(=O)c2[nH]1 (stereo unspecified)
[1]
  IC50: 0.071 µM

## COc1cc(N2CCC(N)CC2)ccc1-c1nc2c(C)nn(C3CCCC3)c(=O)c2[nH]1
[2]
  inhibition: 89%

## COc1cc(N2CCCNCC2)ccc1-c1nc2c(C)nn(C3CCCCC3)c(=O)c2[nH]1
[3]
  Tmax: 0.25 h
[4]
  AUC: 1.37 µg·h/mL
[5]
  Kp at 0.5 h: 0.09
[6]
  Cmax: 0.57 µg/mL
[7]
  concentration at 0.5 h: 0.446 µg/mL
[8]
  concentration at 0.5 h: 39 ng/g
[9]
  remaining at 1 h: 37%
[10]
  remaining at 1 h: 40%
[22]
  Ratio IC50: > 150
[11]
  remaining at 1 h: 90%
[23]
  Ratio IC50: > 200
[24]
  IC50: 2.9 µM
[12]
  inhibition: 24%
[13]
  inhibition: 2%
[14]
  inhibition: 12%
[15]
  inhibition: 19%
[16]
  inhibition: 3%
[17]
  inhibition: 90%
[18]
  inhibition: 4%
[19]
  inhibition: 28%
[20]
  inhibition: 33%
[21]
  IC50: 0.019 µM
[1]
  IC50: 0.012 µM

## COc1cc(N2CCNC(=O)C2)ccc1-c1nc2c(C)nn(C3CCCCC3)c(=O)c2[nH]1
[1]
  IC50: 0.018 µM

## COc1cc(N2CC(O)C2)ccc1-c1nc2c(C)nn(C3CCCCC3)c(=O)c2[nH]1
[1]
  IC50: 0.053 µM

## COc1cc(-c2cn[nH]c2)ccc1-c1nc2c(C)nn(C3CCCCC3)c(=O)c2[nH]1
[1]
  IC50: 0.045 µM

## NC(CO)C(=O)NNCc1ccc(O)c(O)c1O (stereo unspecified)
[25]
  Activity: Active

## O=C(CCCN1CCC(O)(c2ccc(Cl)cc2)CC1)c1ccc(F)cc1 [HALOPERIDOL]
[26]
  Activity: Dose-dependent effect
